Measurements published in ChEMBL document CHEMBL1201862, “PubChem BioAssay data set” (2004).
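Each compound was tested at five concentrations against cells in 96-well plates for 48 hours. GI50 = concentration required for 50% inhibition of growth.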 Calls of active or inactive are those of the source. No stated cut-off is given here; in the data, active = GI50 up to about 1.1 µM and inactive = higher.

Key:
Experiment in all cases: growth of human tumour cells (NCI), 48 h
786-0 = system: 786-0
A549 = system: A549
ACHN = system: ACHN
BT-549 = system: BT-549
CAKI-1 = system: CAKI-1
CCRF-CEM = system: CCRF-CEM
COLO 205 = system: COLO 205
DU-145 = system: DU-145
EKVX = system: EKVX
HCC 2998 = system: HCC 2998
HCT-116 = system: HCT-116
HCT-15 = system: HCT-15
HL-60 = system: HL-60
HOP-62 = system: HOP-62
HOP-92 = system: HOP-92
HT-29 = system: HT-29
Hs-578T = system: Hs-578T
IGROV-1 = system: IGROV-1
K562 = system: K562
KM12 = system: KM12
LOX IMVI = system: LOX IMVI
M14 = system: M14
MCF7 = system: MCF7
MDA-MB-231 = system: MDA-MB-231
MDA-MB-435 = system: MDA-MB-435
MDA-N = system: MDA-N
MOLT-4 = system: MOLT-4
Malme-3M = system: Malme-3M
NCI-H226 = system: NCI-H226
NCI-H23 = system: NCI-H23
NCI-H522 = system: NCI-H522
NCI/ADR-RES = system: NCI/ADR-RES
OVCAR-3 = system: OVCAR-3
OVCAR-4 = system: OVCAR-4
OVCAR-5 = system: OVCAR-5
OVCAR-8 = system: OVCAR-8
PC-3 = system: PC-3
RPMI-8226 = system: RPMI-8226
RXF 393 = system: RXF 393
SF-268 = system: SF-268
SF-295 = system: SF-295
SF-539 = system: SF-539
SK-MEL-28 = system: SK-MEL-28
SK-MEL-2 = system: SK-MEL-2
SK-MEL-5 = system: SK-MEL-5
SK-OV-3 = system: SK-OV-3
SN12C = system: SN12C
SNB-19 = system: SNB-19
SNB-75 = system: SNB-75
SR = system: SR
SW-620 = system: SW-620
T47D = system: T47D
TK-10 = system: TK-10
U-251 = system: U-251
UACC-257 = system: UACC-257
UACC-62 = system: UACC-62
UO-31 = system: UO-31

Which GI50 (786-0) does the source give for `O=c1[nH]c2nc3ccccc3c(=O)n2/c1=C/c1cccs1` here?
Its GI50 is > 100 µM (inactive).

What about the GI50 (A549) of the same compound?
Its GI50 is > 100 µM (inactive).

What about the GI50 (ACHN) of the same compound?
Its GI50 is > 100 µM (inactive).

And the GI50 (BT-549)?
Its GI50 is > 100 µM (inactive).

And the GI50 (CAKI-1)?
Its GI50 is > 100 µM (inactive).

What about the GI50 (CCRF-CEM) of the same compound?
The GI50 was > 100 µM (inactive).

And the GI50 (COLO 205)?
The GI50 was > 100 µM (inactive).

What about the GI50 (DU-145) of the same compound?
Its GI50 is > 100 µM (inactive).

And the GI50 (EKVX)?
The GI50 was > 100 µM (inactive).

What about the GI50 (HCC 2998) of the same compound?
The GI50 was > 100 µM (inactive).

What about the GI50 (HCT-116) of the same compound?
Its GI50 is > 100 µM (inactive).

And the GI50 (HCT-15)?
The GI50 was > 100 µM.

And the GI50 (HL-60)?
Its GI50 is > 100 µM (inactive).

And the GI50 (HOP-62)?
The GI50 was > 100 µM (inactive).

What about the GI50 (HOP-92) of the same compound?
The GI50 was 87.7 µM (inactive).

What about the GI50 (HT-29) of the same compound?
The GI50 was > 100 µM (inactive).

And the GI50 (Hs-578T)?
The GI50 was 67 µM (inactive).

What about the GI50 (IGROV-1) of the same compound?
The GI50 was > 100 µM (inactive).

What about the GI50 (K562) of the same compound?
Its GI50 is > 100 µM (inactive).

And the GI50 (KM12)?
The GI50 was 70.3 µM (inactive).

And the GI50 (LOX IMVI)?
The GI50 was > 100 µM (inactive).

What about the GI50 (M14) of the same compound?
Its GI50 is > 100 µM (inactive).

What about the GI50 (MCF7) of the same compound?
The GI50 was > 100 µM (inactive).

What about the GI50 (MDA-MB-231) of the same compound?
Its GI50 is > 100 µM (inactive).

What about the GI50 (MDA-MB-435) of the same compound?
Its GI50 is > 100 µM (inactive).

And the GI50 (MDA-N)?
Its GI50 is > 100 µM (inactive).

And the GI50 (MOLT-4)?
Its GI50 is > 100 µM (inactive).

What about the GI50 (Malme-3M) of the same compound?
Its GI50 is > 100 µM (inactive).

And the GI50 (NCI-H226)?
The GI50 was > 100 µM (inactive).

And the GI50 (NCI-H23)?
The GI50 was > 100 µM (inactive).

And the GI50 (NCI-H522)?
Its GI50 is > 100 µM (inactive).

What about the GI50 (NCI/ADR-RES) of the same compound?
The GI50 was > 100 µM (inactive).

And the GI50 (OVCAR-3)?
The GI50 was > 100 µM (inactive).

And the GI50 (OVCAR-4)?
The GI50 was > 100 µM (inactive).

And the GI50 (OVCAR-5)?
Its GI50 is > 100 µM (inactive).

And the GI50 (OVCAR-8)?
Its GI50 is > 100 µM (inactive).

And the GI50 (PC-3)?
Its GI50 is > 100 µM (inactive).

And the GI50 (RPMI-8226)?
The GI50 was > 100 µM (inactive).

And the GI50 (RXF 393)?
The GI50 was > 100 µM (inactive).

What about the GI50 (SF-268) of the same compound?
Its GI50 is > 100 µM (inactive).

What about the GI50 (SF-295) of the same compound?
The GI50 was > 100 µM (inactive).

And the GI50 (SF-539)?
Its GI50 is > 100 µM (inactive).

What about the GI50 (SK-MEL-28) of the same compound?
The GI50 was > 100 µM (inactive).

And the GI50 (SK-MEL-2)?
Its GI50 is > 100 µM (inactive).

And the GI50 (SK-MEL-5)?
Its GI50 is > 100 µM (inactive).

And the GI50 (SK-OV-3)?
Its GI50 is > 100 µM (inactive).

What about the GI50 (SN12C) of the same compound?
The GI50 was > 100 µM (inactive).

And the GI50 (SNB-19)?
The GI50 was > 100 µM (inactive).

And the GI50 (SNB-75)?
The GI50 was 20.5 µM (inactive).

And the GI50 (SR)?
The GI50 was > 100 µM (inactive).

And the GI50 (SW-620)?
Its GI50 is > 100 µM (inactive).

What about the GI50 (T47D) of the same compound?
Its GI50 is 69.7 µM (inactive).

What about the GI50 (TK-10) of the same compound?
Its GI50 is > 100 µM (inactive).

What about the GI50 (U-251) of the same compound?
The GI50 was > 100 µM (inactive).

What about the GI50 (UACC-257) of the same compound?
Its GI50 is > 100 µM (inactive).

And the GI50 (UACC-62)?
The GI50 was > 100 µM (inactive).

And the GI50 (UO-31)?
The GI50 was > 100 µM (inactive).
